Consider three compounds from EP4775570A1, “CYP11A1 INHIBITOR, PREPARATION METHOD THEREFOR AND USE THEREOF” (Shenzhen Zhongge Biological Technology Co., Ltd., priority 2023, dated 2025).

In one data set the target is T1, hERG channels (Homo sapiens, UniProt Q12809).
T1 construct: host or cells: HEK293
Description: hERG testing, manual whole cell patch clamp. The data set is classed as cell-based. Particulars: IC50, hERG tail current, room temperature (~25°C), 0.1-30 µM. The procedure:
The cells used in this experiment were HEK293 cell lines transfected with hERG cDNA and stably expressing hERG channels (#60187, provided by BPS Bioscience Inc., P3-P23 generations were used in the experiment). The cells were cultured in a culture medium containing the following components: MEM medium, 10% (v/v) inactivated fetal bovine serum, 1 mM sodium pyruvate, 500µg/ml geneticin, 0.1mM non-essential amino acid, 100U/ml penicillin-streptomycin. HEK293 hERG cells were grown in petri dishes containing the aforementioned culture medium and cultured in an incubator at 37°C and 5% CO2, passaged approximately three times a week and maintained at a cell fusion rate between 40% and 80%. […]
The electrophysiological experiment was carried out using a manual patch clamp system (HEKA EPC-10 signal amplifier and digital conversion system, HEKA Electronics, Germany) to record the whole cell currents. […] Only when the hERG potassium current recorded in the previous step achieved stable state under continuous extracellular fluid perfusion within the recording chamber, could the compound to be tested be continuously perfused until the inhibitory effect of the compound on the hERG current reaches a stable state. […]
(In general: Block of hERG is tested as a sign of cardiac risk.)

Data set [1] relates to VCaP castration-resistant prostate cancer subcutaneous transplant tumor model. Nature of the data set: In vivo pharmacodynamic study in a VCaP castration-resistant prostate cancer subcutaneous transplant tumor model. Also noted: species or system SCID-Beige mice. Particulars: 30mg/kg BID oral + prednisone 0.6mg/kg QD; for tumor inhibitory activity (in words): compared with ODM-208. As for the experimental part: Animals: experimental male SCID-Beige mice, 6-8-weeks old or 18-22g, provided by Beijing Vital River Laboratory Animal Technology Co., Ltd.
Experiment procedures: all experimental animals were kept within specific-pathogen-free animal barrier facility, and allowed 3 days of adaptation before the experiment began. VCaP tumor cells were in vitro cultured as monolayer in DMEM complete medium (with 10% fetal bovine serum and 1% penicillin & streptomycin) at 37°C in air containing 5% CO2. Tumor cells were routinely passaged 2-3 times a week, and cells in exponential growth phase were collected and counted for tumor cell inoculation. 10x10^6 VCaP tumor cells were resuspended in 0.1ml PBS, thoroughly mixed with 0.1ml matrigel, and then inoculated subcutaneously on the right flank of each mouse to form a tumor. The tumor-bearing mice were allowed to develop to an average tumor volume of around 200mm^3 and underwent castration surgery. The tumor volumes of all mice were measured after one week of castration surgery. Suitable tumor-bearing mice were selected and assigned randomly into the following groups: blank control group, prednisone (0.6mg/kg, QD) group, abiraterone (33.73mg/kg, QD) + prednisone (0.6mg/kg, QD) group, ODM-208 (30mg/kg, BID) + prednisone (0.6mg/kg, QD) group, and the compound of the present disclosure (30mg/kg, BID) + prednisone (0.6mg/kg, QD) group. Animals in blank control group were orally administered with vehicles (0.5%MC+0.5%Tween80 and 0.5%CMCNa), and the animals in other groups were orally administered with corresponding compound. The experiment lasted for 32 days, and during the experiment, the animals in each group were measured for tumor volume and body weight twice a week.

SMILES strings stand for the structures. pIC50: −log10 of the molar value.

T1 sequence (Q12809 whole entry): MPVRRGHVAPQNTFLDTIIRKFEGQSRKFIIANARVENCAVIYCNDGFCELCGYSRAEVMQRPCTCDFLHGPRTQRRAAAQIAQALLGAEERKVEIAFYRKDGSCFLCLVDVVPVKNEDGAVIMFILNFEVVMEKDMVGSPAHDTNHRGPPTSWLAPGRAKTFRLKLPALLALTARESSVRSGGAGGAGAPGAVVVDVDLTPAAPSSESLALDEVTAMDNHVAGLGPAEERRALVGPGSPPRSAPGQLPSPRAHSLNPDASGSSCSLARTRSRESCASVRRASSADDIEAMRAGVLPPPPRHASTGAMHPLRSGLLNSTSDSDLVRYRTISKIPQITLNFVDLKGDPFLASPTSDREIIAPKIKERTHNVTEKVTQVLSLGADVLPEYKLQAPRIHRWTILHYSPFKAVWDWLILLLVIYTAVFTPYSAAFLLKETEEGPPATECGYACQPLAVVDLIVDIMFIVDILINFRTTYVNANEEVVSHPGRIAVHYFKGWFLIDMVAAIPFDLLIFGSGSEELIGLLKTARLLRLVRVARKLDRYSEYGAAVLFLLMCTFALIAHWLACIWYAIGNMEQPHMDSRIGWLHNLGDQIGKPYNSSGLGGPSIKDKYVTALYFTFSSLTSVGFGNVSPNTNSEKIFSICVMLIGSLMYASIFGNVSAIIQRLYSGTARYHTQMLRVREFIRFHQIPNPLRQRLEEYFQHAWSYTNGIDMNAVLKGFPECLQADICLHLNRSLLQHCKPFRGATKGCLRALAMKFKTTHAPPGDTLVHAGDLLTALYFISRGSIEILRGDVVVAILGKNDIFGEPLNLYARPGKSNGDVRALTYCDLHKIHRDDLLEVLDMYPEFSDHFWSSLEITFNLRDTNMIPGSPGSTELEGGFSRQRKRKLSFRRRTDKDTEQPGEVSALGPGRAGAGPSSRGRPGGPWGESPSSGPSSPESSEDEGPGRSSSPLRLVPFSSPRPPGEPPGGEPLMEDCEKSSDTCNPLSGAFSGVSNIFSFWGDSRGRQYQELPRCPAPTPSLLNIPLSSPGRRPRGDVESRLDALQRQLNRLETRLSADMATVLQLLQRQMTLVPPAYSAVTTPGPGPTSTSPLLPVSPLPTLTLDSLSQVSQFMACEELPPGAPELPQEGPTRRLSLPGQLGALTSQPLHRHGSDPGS

For the compound `Cn1c(CN2Cc3ccccc3C2)c(F)cc(C=CC2CCN(C(=O)CC#N)CC2)c1=O` [compound 112], the pIC50 (usually the negative decadic logarithm of the IC50, by convention in mol/L) against hERG channels is less than 4.52.

On to `COc1cc(CN2Cc3ccccc3C2)ccc1CCC1CCN(S(C)(=O)=O)CC1` [compound 53], for which, in data set [1], the “weight loss (in words)” value was “without significant weight loss” and the “tumor inhibitory activity (in words)” value is recorded as “significantly better than ODM-208”. Moreover, the animal weight loss in data set [1] (32 days) is listed as -2%. Moreover, the “tumor inhibition rate TGI” value in data set [1] (castrated tumor-bearing mice, 32 days) was 112%.

`Cn1c(CN2Cc3ccccc3C2)c(F)cc(CCC2CCN(S(C)(=O)=O)CC2)c1=O` [compound 72]: in data set [1], the “weight loss (in words)” value was “without significant weight loss” and the “tumor inhibitory activity (in words)” value is given as “significantly better than ODM-208”. Also, on hERG channels, the pIC50 was less than 4.52.
